In patent US20030199515A1, “Method for the preparation of crystalline tetrahydrobenzothiepines” (G.D. SEARLE, LLC, priority 2001, published 2003):

Assay: Water uptake experiments (Dynamic Vapor Sorption water sorption/desorption isotherms)
Assay type: physicochemical
Settings: for hygroscopicity (in words): crystalline form
Method: Water sorption experiments are performed on a Dynamic Vapor Sorption (DVS) apparatus (DVS-1000 manufactured by Surface Measurements Systems, Inc.). Experiments are performed at 25° C. by initially drying the material of interest (about 10 mg sample) from 30% relative humidity (RH) (ambient room condition) to about […] in a stepwise fashion (10% RH step) by purging with dry nitrogen until no further weight change was observed. The samples are then exposed to a stepwise (10% RH steps) increase in RH from about 0 to about 90% RH. Each successive step is initiated when the change in weight over time at the relative humidity was less than 0.0003% ((dm/dt)/m0×100, where m is mass in mg, m0 is initial mass, and t is time in minutes). The sample is then taken through the reverse of the stepwise % RH increase. The data are collected on a computer and analyzed using SMS′ proprietary MS-Excel macro interface software.

SMILES | hygroscopicity (in words) | hygroscopicity (in words) (listed as form II) | weight gain of a dry sample (% of its own weight) when equilibrated under humid air (dry sample, equilibrated under 80% relative humidity (RH) air at 25° C.)
CCCCC1(CCCC)CS(=O)(=O)c2ccc(N(C)C)cc2[C@@H](c2ccc(OCc3ccc(C[N+]45CCN(CC4)CC5)cc3)cc2)[C@H]1O.[Cl-] [Form II, (4R,5R)-1-((4-(4-(3,3-dibutyl-7-(dimethylamino)-2,3,4,5-tetrahydro-4-hydroxy-1,1-dioxido-1-benzithiepin-5-yl)phenoxy)methyl)phenyl)methyl-4-aza-1-azoniabicyclo[2.2.2]octane Chloride] | essentially nonhygroscopic | essentially non-hygroscopic | less than 1%
CCCCC1(CCCC)CS(=O)(=O)c2ccc(N(C)C)cc2[C@@H](c2ccc(OCc3ccc(C[N+]45CCN(CC4)CC5)cc3)cc2)[C@H]1O.[Cl-] [Form I, (4R,5R)-1-((4-(4-(3,3-dibutyl-7-(dimethylamino)-2,3,4,5-tetrahydro-4-hydroxy-1,1-dioxido-1-benzithiepin-5-yl)phenoxy)methyl)phenyl)methyl-4-aza-1-azoniabicyclo[2.2.2]octane Chloride] | hygroscopic | – | –
